Key:
Format in all cases: cell-based
P23H rhodopsin [1] = test: Image-based (high-content imaging) assay in NIH3T3 (RHO^P23H/GFP) cells; conditions: for EC50 / Efficacy, Image-based assay NIH3T3 (RHO^P23H/GFP): 24 h; for EC50: 8-10 doses, rhodopsin immunostaining; for Efficacy, Image-based assay NIH3T3 (RHO^P23H/GFP): DMSO 0%, secondary antibody only −100%
From the text: Two NIH3T3 stable cell lines, NIH3T3 (RHO^WT/GFP) and NIH3T3 (RHO^P23H/GFP) were shared by Dr. Krzysztof Palczewski's lab who generated them by incorporating the […] DNA constructs to the NIH3T3 cells, respectively, via viral transduction (24, 33). GFP was co-expressed with rhodopsin for positive-clone selection. The expression of the WT and P23H rhodopsin protein was confirmed by immunoblots and immunostaining.
To assess the effect of active compounds on the clearance of P23H rhodopsin in mammalian cells, an image-based assay was performed using NIH3T3 (RHO^WT/GFP) and NIH3T3 (RHO^P23H/GFP) cells, as described previously. Briefly, cells were seeded at 5000 cells per well in 384-well plates and incubated at 37° C. in 5% CO2 for 4 hours until cells were attached to the bottom of the plate. Attached cells were treated with compounds for 24 hours. The assay medium was aspirated, and cells were fixed with 4% paraformaldehyde at 20 μL per well for 20 min at room temperature. Cell membranes were permeabilized with PBS containing 0.1% Triton X-100 (PBST) and then incubated with 50 µg/mL 1D4 anti-rhodopsin antibody at 15 μL/well for 1 hour at room temperature. After three washes with 50 μl/well of PBST, cells were incubated with 15 μL/well Cy3-conjugated goat anti-mouse IgG antibody for 1 hour at room temperature. After three washes with 50 μl/well of PBST, cells were incubated in 50 μl/well of PBS containing 2 μg/mL Hoechst 33342 to stain the nuclei. Finally, the immunostained cells were imaged by an ImageExpress High Content Imaging System (MolecularDevices). Immunofluorescence of rhodopsin was measured by MetaXpress software using the mean of total fluorescence of Cy3 channel per cell per well taken from five fields containing 600-1000 intact cells per well. After normalizing the fluorescence intensities of rhodopsin to the DMSO treated cells as 0% and cells immunostained with secondary antibody only as −100%, dose-response curves for each compound were plotted and fitted by a modified Hill function using the Origin software. The high-content imaging experiments for hit validation were performed at the CWRU drug discovery facility, and the high-content imaging analyses for the MTX co-treatment with BafA1 and MG-132 were undertaken at the University of Pittsburgh Drug Discovery Institute.

RHO transcripts = test: qPCR of RHO transcripts in NIH3T3 (RHO^P23H/GFP) and NIH3T3 (RHO^WT/GFP) cells; conditions: 10 μM, 24 h; for WT and P23H rhodopsin transcripts in comparison to DMSO control: both cell lines; for Rho mRNA level (qPCR): vs DMSO
Protocol: NIH3T3 (RHO^WT/GFP) and NIH3T3 (RHO^P23H/GFP) cells were seeded in the 24-well plates at a density of 2.5×10^5 cells/well and cultured at 37° C. with 5% CO2 for overnight. Cells were then incubated with the culture medium containing compounds for 24 h. After aspirating the medium, cells were collected and lysed in 300 μL/well of TRIzol (ThermoFisher, 15596026, Waltham, MA USA) for 5 min. Samples were vigorously mixed with 60 μL chloroform for 30 s, then centrifuged at 12,000×g for 15 min at 4° C. The upper aqueous phase containing RNA was taken out and mixed with 150 μL isopropanol by vigorous shaking. After sedation for 10 min, samples were centrifuged at 12,000×g for 10 min at 4° C. The pellets were washed with 300 μL 75% ethanol and centrifuged at 7,500×g at 4° C. for 5 min. The RNA pellets were air-dried for 15 min and dissolved in 30 μL nuclease-free water (FisherScientific, BP2484-100, Houston, TX USA). The yield and purity of RNA were assessed by a NanoDrop spectrometer. The cDNAs was generated from 1 μg RNA using a High-Capacity RNA-to-cDNA Kit (ThermoFisher, 4387406, Waltham, MA USA). qPCR amplifications were performed using the PowerUp SYBR Green Master Mix (ThermoFisher, A25741, Waltham, MA USA) with the cDNA templates and primers, and the reaction was controlled by a QuantStudio 3 thermocycler (ThermoFisher, Waltham, MA USA). Primer sequences are as follows: RHO, forward 5′-CCCTTCTCCAACGTCACAGG-3′ (SEQ ID NO: 1), reverse 5′-TGAGGAAGTTGATGGGGAAGC-3′ (SEQ ID NO: 2); β-actin, forward 5′-ACCTTCTACAATGAGCTGCG-3′ (SEQ ID NO: 3), reverse 5′-CTGGATGGCTACGTACATGG-3′ (SEQ ID NO: 4).

P23H rhodopsin [2] = test: Non-radioactive pulse-chase assay in NIH3T3 (RHO^P23H/GFP) cells; conditions: 10 μM; for Rate of Rho^P23H degradation (Pulse-chase): 24 h of chase, vs DMSO; for BTN-AHA labeled P23H rhodopsin at 24 h of chase: in comparison to DMSO control
Protocol: To quantify rhodopsin degradation, a non-radioactive pulse-chase assay was used with a ‘click’ reaction. Briefly, NIH3T3 (Rho^P23H/GFP) or NIH3T3 (Rho^WT/GFP) cells were cultured in a 24-well plate at 3×10^5 cells/well in the complete medium with 10% FBS. The medium was aspirated after overnight culture, and cells were gently washed once with 1 mL/well of PBS. Cell were incubated in the L-methionine-free DMEM (Gibco, 21013-024, Gaithersburg, MD USA) for 1 h to exhaust the intracellular methionine. Then the cells were pulsed with L-AHA at final concentration 50 μM for 4 h. Meanwhile, the cells treated with 50 μM L-methionine were used as negative control. After labeling, cells were replaced with the complete DMEM medium with 2 mM L-methionine in the presence or absence of active compounds for a varying time of chase. Then cells were lysed with PBS containing 0.1% SDS, 1% DDM and the complete protease inhibitor cocktail. The total protein concentrations were measured by a BCA assay. Cell lysate containing 200 μg total protein was mixed with 5 μM BTN-sDIBO to make a ‘click’ reaction for 1 h at 37° C. Samples were incubated with Dynabeads™ Protein G binding with 1D4 anti-rhodopsin antibody for 15 min at room temperature followed by three washes with PBS containing 0.02% Tween 20. Proteins were eluted with 50 mM Glycine at pH 2.8 for 10 min at room temperature and then loaded onto nitrocellulose membranes. After air-dried, the membranes were blocked with 5% milk and immunoblotted with 0.25 μg/mL HRP-conjugated SA.

| Structure (SMILES) | EC50 (P23H rhodopsin [1]) | Efficacy, Image-based assay NIH3T3 (RHO^P23H/GFP) (P23H rhodopsin [1]) | WT and P23H rhodopsin transcripts in comparison to DMSO control (RHO transcripts) | Rho mRNA level (qPCR) (RHO transcripts) | Rate of Rho^P23H degradation (Pulse-chase) (P23H rhodopsin [2]) | BTN-AHA labeled P23H rhodopsin at 24 h of chase (P23H rhodopsin [2]) | EC50 (P23H rhodopsin [1]; listed as MTX) | mean intensity of P23H rhodopsin immunostaining per cell (P23H rhodopsin [1]; MTX alone, dose series) | MTX dose-dependent reduction of P23H rhodopsin immunostaining, co-treatment with BafA1 (P23H rhodopsin [1]; co-treatment 100 nM BafA1) | MTX dose-dependent reduction of P23H rhodopsin immunostaining, addition of MG-132 (P23H rhodopsin [1]; co-treatment 5 μM MG-132) | increase of rhodopsin transcripts compared to DMSO control (RHO transcripts; both NIH3T3 (RHO^P23H/GFP) and NIH3T3 (RHO^WT/GFP) cells) |
| --- | --- | --- | --- | --- | --- | --- | --- | --- | --- | --- | --- |
| O=C(O)C1=CC=CC(O)C1O (stereo not drawn) [CL-003] | 600 nM | −46.1% | reduced non-selectively | Down | No Change | – | – | – | – | – | – |
| CCn1cnc2c(N)ncnc21 [CL-007] | 2900 nM | −72.7% | reduced non-selectively | Down | Up | significantly reduced | – | – | – | – | – |
| CN(Cc1cnc2nc(N)nc(N)c2n1)c1ccc(C(=O)N[C@@H](CCC(=O)O)C(=O)O)cc1 [CL-009, N-[4-[[(2,4-diamino-6-pteridinyl)methyl]methylamino]benzoyl]-L-glutamic acid] | 3300 nM | −36.0% | did not affect the transcription | No Change | Up | significantly reduced | ~3300 nM | reduced in an MTX dose-dependent manner | entirely abolished | not affected | – |
| CCC(C)(O)C(O)C(=O)O (stereo not drawn) [CL-008] | 1600 nM | −70.1% | reduced non-selectively | Down | No Change | – | – | – | – | – | – |

Continued by falling EC50 (P23H rhodopsin [1]), values first:

| EC50 (P23H rhodopsin [1]) | Structure (SMILES) | Efficacy, Image-based assay NIH3T3 (RHO^P23H/GFP) (P23H rhodopsin [1]) | WT and P23H rhodopsin transcripts in comparison to DMSO control (RHO transcripts) | Rho mRNA level (qPCR) (RHO transcripts) | Rate of Rho^P23H degradation (Pulse-chase) (P23H rhodopsin [2]) | BTN-AHA labeled P23H rhodopsin at 24 h of chase (P23H rhodopsin [2]) | EC50 (P23H rhodopsin [1]; listed as MTX) | mean intensity of P23H rhodopsin immunostaining per cell (P23H rhodopsin [1]; MTX alone, dose series) | MTX dose-dependent reduction of P23H rhodopsin immunostaining, co-treatment with BafA1 (P23H rhodopsin [1]; co-treatment 100 nM BafA1) | MTX dose-dependent reduction of P23H rhodopsin immunostaining, addition of MG-132 (P23H rhodopsin [1]; co-treatment 5 μM MG-132) | increase of rhodopsin transcripts compared to DMSO control (RHO transcripts; both NIH3T3 (RHO^P23H/GFP) and NIH3T3 (RHO^WT/GFP) cells) |
| --- | --- | --- | --- | --- | --- | --- | --- | --- | --- | --- | --- |
| 2200 nM | O=C(NC1CCNCC1)c1n[nH]cc1NC(=O)c1c(Cl)cccc1Cl [CL-006] | −76.4% | reduced non-selectively | Down | No Change | – | – | – | – | – | – |
| 2100 nM | CC(=O)OC(CC(=O)[O-])C[N+](C)(C)C (stereo not drawn) [CL-001] | −83.6% | reduced non-selectively | Down | Up | significantly reduced | – | – | – | – | – |
| 1600 nM | CC(=O)OC(CC(=O)O)C[N+](C)(C)C (stereo not drawn) [CL-002] | −61.0% | reduced non-selectively | Down | Up | significantly reduced | – | – | – | – | – |
| 1300 nM | NCC(=O)COP(=O)(O)O [CL-005] | −72.7% | – | Up | Up | significantly reduced | – | – | – | – | up to 2 fold |
| 470 nM | CC(O)CN (stereo not drawn) [CL-004] | −70.7% | reduced non-selectively | Down | No Change | – | – | – | – | – | – |
